In PubChem BioAssay (NCI):
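Where inhibition never reached the appropriate level, the endpoint shown equals the highest concentration tested. Otherwise, values were interpolated linearly from a five-concentration, 48-hour dose response in 96-well plates. TGI marks complete inhibition of growth.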

Experiments:
Test in all cases: NCI tumour cell line growth inhibition, 48 h
786-0 renal = test system: 786-0 renal
A498 renal = test system: A498 renal
A549 NSCLC = test system: A549 NSCLC
ACHN renal = test system: ACHN renal
BT-549 breast = test system: BT-549 breast
CAKI-1 renal = test system: CAKI-1 renal
CCRF-CEM leukemia = test system: CCRF-CEM leukemia
COLO 205 colon = test system: COLO 205 colon
DU-145 prostate = test system: DU-145 prostate
EKVX NSCLC = test system: EKVX NSCLC
HCC-2998 colon = test system: HCC-2998 colon
HCT-116 colon = test system: HCT-116 colon
HCT-15 colon = test system: HCT-15 colon
HOP-62 NSCLC = test system: HOP-62 NSCLC
HS 578T breast = test system: HS 578T breast
HT29 colon = test system: HT29 colon
IGROV1 ovarian = test system: IGROV1 ovarian
K-562 leukemia = test system: K-562 leukemia
KM12 colon = test system: KM12 colon
M14 melanoma = test system: M14 melanoma
MALME-3M melanoma = test system: MALME-3M melanoma
MCF7 breast = test system: MCF7 breast
MDA-MB-231 breast = test system: MDA-MB-231 breast
MDA-MB-435 = test system: MDA-MB-435
MDA-N = test system: MDA-N
MOLT-4 leukemia = test system: MOLT-4 leukemia
NCI-H226 lung = test system: NCI-H226 lung
NCI-H23 lung = test system: NCI-H23 lung
NCI-H460 lung = test system: NCI-H460 lung
NCI-H522 lung = test system: NCI-H522 lung
NCI/ADR-RES ovarian = test system: NCI/ADR-RES ovarian
OVCAR-3 ovarian = test system: OVCAR-3 ovarian
OVCAR-4 ovarian = test system: OVCAR-4 ovarian
OVCAR-5 ovarian = test system: OVCAR-5 ovarian
OVCAR-8 ovarian = test system: OVCAR-8 ovarian
PC-3 prostate = test system: PC-3 prostate
RPMI-8226 leukemia = test system: RPMI-8226 leukemia
RXF 393 renal = test system: RXF 393 renal
SF-268 CNS = test system: SF-268 CNS
SF-295 CNS = test system: SF-295 CNS
SK-MEL-2 melanoma = test system: SK-MEL-2 melanoma
SK-MEL-28 melanoma = test system: SK-MEL-28 melanoma
SK-MEL-5 melanoma = test system: SK-MEL-5 melanoma
SK-OV-3 ovarian = test system: SK-OV-3 ovarian
SN12C renal = test system: SN12C renal
SNB-19 CNS = test system: SNB-19 CNS
SNB-75 CNS = test system: SNB-75 CNS
SW-620 colon = test system: SW-620 colon
T-47D breast = test system: T-47D breast
TK-10 renal = test system: TK-10 renal
U251 CNS = test system: U251 CNS
UACC-257 melanoma = test system: UACC-257 melanoma
UACC-62 melanoma = test system: UACC-62 melanoma
UO-31 renal = test system: UO-31 renal
HL-60(TB) leukemia = test system: HL-60(TB) leukemia
HOP-92 NSCLC = test system: HOP-92 NSCLC
LOX IMVI melanoma = test system: LOX IMVI melanoma
SF-539 CNS = test system: SF-539 CNS
SR leukemia = test system: SR leukemia

Measured: TGI

COc1cccc2c1CCc1sc(CN3CCN(C)CC3)nc1-2
53.5 µM: CCRF-CEM leukemia
63.9 µM: MOLT-4 leukemia
65.7 µM: UACC-62 melanoma
80.1 µM: SK-MEL-5 melanoma
54.1 µM: HT29 colon
not listed: HL-60(TB) leukemia | HOP-92 NSCLC | LOX IMVI melanoma | SF-539 CNS | SR leukemia
> 100 µM: all other assays above

O=C(C#Cc1ccccc1)N1CCCCC1
67.5 µM: HCT-116 colon
not listed: NCI/ADR-RES ovarian | RXF 393 renal | UO-31 renal
> 100 µM: all other assays above

CN1C(=O)c2c(c3c4ccccc4n(C)c3c3c2c2ccccc2n3C)C1=O
not listed: HS 578T breast | RXF 393 renal | SF-268 CNS | HL-60(TB) leukemia
> 100 µM: all other assays above

COc1ccccc1-c1nc[nH]c1-c1ccccc1OC
87.1 µM: RXF 393 renal
78.3 µM: M14 melanoma
52.9 µM: MALME-3M melanoma
41.7 µM: LOX IMVI melanoma
65.3 µM: SF-268 CNS
61.8 µM: NCI/ADR-RES ovarian
34.9 µM: MDA-N
42.1 µM: NCI-H522 lung
28.3 µM: KM12 colon
60.7 µM: SNB-75 CNS
97.9 µM: SF-295 CNS
65 µM: K-562 leukemia
not listed: CCRF-CEM leukemia | COLO 205 colon | DU-145 prostate | HCC-2998 colon | HS 578T breast | HT29 colon | MDA-MB-435 | NCI-H226 lung | OVCAR-8 ovarian | SK-MEL-5 melanoma | U251 CNS | UACC-62 melanoma | HL-60(TB) leukemia | SF-539 CNS | SR leukemia
> 100 µM: all other assays above
